Test results published in patent US5744450A, “GnRH analogs” (The Salk Institute for Biological Studies, priority 1995, dated 1998).

Test system: LH release

CCNC(=O)[C@@H]1CCCN1C(=O)[C@H](CCCNC(=N)N)NC(=O)[C@H](CC(C)C)NC(=O)[C@@H](Cc1ccc(Nc2n[nH]c(N)n2)cc1)NC(=O)[C@H](Cc1ccc(O)cc1)NC(=O)[C@H](CO)NC(=O)[C@H](Cc1c[nH]c2ccccc12)NC(=O)[C@H](Cc1c[nH]cn1)NC(=O)[C@@H]1CCC(=O)N1 [Peptide 130A, pGlu-His-Trp-Ser-Tyr-D-Aph(3-amino-1,2,4-triazole)-Leu-Arg-Pro-NHCH2 CH3]
potency relative to native GnRH: about 79 times that of native GnRH
